{"source": "patent US11726081B2", "about": "“Methods to identify modulators of tau protein structure” (REGENTS OF THE UNIVERSITY OF MINNESOTA, priority 2019, dated 2023)", "key": {"[1]": {"biological_target": "purified recombinant full-length 2N4R wild-type (WT) tau protein (Homo sapiens, UniProt P10636)", "assay": "Surface plasmon resonance (SPR) binding assay, WT tau", "conditions": "for direct binding to immobilized tau protein: 1 nM to 5 μM"}, "[2]": {"test_system": "soluble free GFP/RFP", "assay": "Soluble free GFP/RFP-only FRET control", "format": "cell-based, human", "experimental": "(§1) HEK293 and SH-SY5Y cells (ATCC) were cultured in phenol red-free Dulbecco's Modified Eagle Medium (DMEM, Gibco) supplemented with 2 mM L-Glutamine (Invitrogen), heat-inactivated 10% fetal bovine serum (FBS HI, Gibco), 100 U/ml penicillin and 100 μg/ml streptomycin (Gibco). Cell cultures were maintained in an incubator with 5% CO2 (Forma Series II Water Jacket CO2 Incubator, Thermo Scientific) at 37° C. […] To generate stable cell lines expressing GFP-tau-RFP or tau-GFP only, HEK293 cells were transiently transfected using Lipofectamine 3000 with GFP-tau-RFP or tau-GFP DNA plasmids. Transiently transfected cells were treated with G418 (Enzo Life Sciences, Farmingdale, N.Y.) to eliminate non-expressing cells. Stable cell lines expressing GFP-tau-RFP or tau-GFP with the largest population of expressing cells were selected by fluorescence microscopy. The GFP-linker-RFP (linker contains 32 amino acids, GFP-32AA-RFP) control stable cell line was generated as described previously. The control cells expressing only free soluble fluorophores (GFP or RFP only) were generated by transiently transfecting HEK293 cells using Lipofectamine 3000 with plasmids containing GFP or RFP DNAs at the same plasmid concentration as the inter-molecular tau FRET biosensor.\n(§2) The compound was dissolved in DMSO to make a 10 mM stock solution, which was serially diluted in 96-well mother plates. […]"}, "[3]": {"biological_target": "tau preformed fibrils (PFF) (Homo sapiens, UniProt P10636)", "assay": "ThT assay on tau preformed fibrils (PFF)", "format": "biochemical", "conditions": "DTT 5 mM", "experimental": "HEK293 cells were transfected with tau-RFP (at equivalent DNA concentration as used in the tau FRET biosensor) for 48 hours prior to the addition of tau preformed fibrils (PFF). Tau-GFP was not used as it would interfere with the thioflavin-S(ThS) signal. To make the PFF, 100 μl of purified tau proteins (10 μM) with DTT (5 mM) and heparin (0.4 mg/ml) were first incubated for 120 hours at 37° C. and shook at 1000 rpm in a thermal shaker (Thermo Fisher Scientific). After incubation, the sample was subjected to ultracentrifugation at 80,000 rpm for 30 minutes. The pellet was collected and sonicated to break up the fibrils into smaller pieces. The concentration of the fibrils was then measured by BCA. […] Cells were then imaged with a fluorescence microscope using EVOS-FL cell imaging systems at 20× magnification. Mean fluorescence intensity for each image was quantified using ImageJ and values were normalized to untransfected controls.\nThioflavin-T (ThT, Sigma, product no. T3516) was dissolved in PBS buffer and was filtered through a 0.2 μm syringe filter to make a stock solution of 2.5 mM. […] The ThT samples (50 μl each) were transferred to a black 96-well non-binding surface microplate with clear bottom (Corning product no. 3655) and incubated at 37° C. with mild shaking (200 rpm) in the Cytation 3 plate reader. […] Readings were acquired every 20 minutes for a total of 120 hours."}, "[4]": {"biological_target": "T1, WT tau FRET biosensor (tau-GFP/RFP) (Homo sapiens, UniProt P10636)", "assay": "WT tau inter-molecular FRET biosensor in HEK293 cells (dose-response, functionality)", "format": "cell-based", "set-up": "cDNA encoding full-length 2N4R tau (441 amino acids); […]; expressed in transfected cells; host or cells: HEK293, transient, tau-GFP:tau-RFP plasmids 1:20", "experimental": "as §1, §2"}, "[5]": {"biological_target": "T1, WT tau FRET biosensor (tau-GFP/RFP)", "assay": "Pilot HTS of NCC library with tau FRET biosensor (fluorescence lifetime)", "conditions": "10 μM, 2 hours"}, "[6]": {"biological_target": "purified WT tau proteins (Homo sapiens, UniProt P10636)", "assay": "Heparin induced thioflavin-T (ThT) aggregation assay", "format": "biochemical", "experimental": "Thioflavin-T (ThT, Sigma, product no. T3516) was dissolved in PBS buffer and was filtered through a 0.2 μm syringe filter to make a stock solution of 2.5 mM. ThT was then diluted to […] prior to addition to the tau proteins. The samples for ThT measurements were prepared by mixing 25 μl of 20 μM tau proteins with 25 μl of 20 μM of ThT, resulting in final concentrations of 10 μM tau proteins and 10 μM ThT. DTT (5 mM) and heparin (0.4 mg/ml) were then added to the samples; a control sample lacked addition of heparin. Lastly, the samples were treated with MK-886 (0.5 μM or 5 μM) and gossypetin (50 μM) with DMSO added to the no-compound controls. The ThT samples (50 μl each) were transferred to a black 96-well non-binding surface microplate with clear bottom (Corning product no. 3655) and incubated at 37° C. with mild shaking (200 rpm) in the Cytation 3 plate reader. The ThT fluorescence was measured by the Cytation 3 plate reader through the bottom of the plate with excitation filter of 440 nm and emission filter of 480 nm. Readings were acquired every 20 minutes for a total of 120 hours."}, "[7]": {"test_system": "WT 2N4R tau", "assay": "Single-molecule FRET (smFRET) on labelled tau monomer", "format": "biochemical", "conditions": "5 μM", "from_the_text": "For site-specific labeling with maleimide-reactive fluorophores, cysteine residues were introduced using QuikChange Site-Directed Mutagenesis (Stratagene). Naturally occurring cysteines were mutated to serines. Labelling positions were selected to roughly mark the boundaries of the N-terminal domain or the proline-rich and microtubule-binding region of tau. Tau protein was purified as described above and labeled immediately following purification following published protocols. Briefly, the protein (typically 200 μL of ˜100 μM protein) was incubated with 1 mM DTT for 30 minutes at room temperature followed by exchange into labeling buffer (20 mM Tris pH 7.4, 50 mM NaCl, and 6 M guanidine HCl) to remove DTT. […]\nSingle-molecule FRET measurements were carried out using ˜30 pM of labelled tau in phosphate buffer (40 mM potassium phosphate, 50 mM KCl, pH 7.4) in 8-chambered Nunc coverslips (ThermoFisher) passivated with poly(ethylene glycol) poly(L-lysine) (PEG-PLL) to reduce protein adsorption to the chambers. […] Fluorescence emission was collected through the objective and passed through a 150 μm diameter pinhole. Photons were separated by an HQ585LP dichroic in combination with ET525/50M and HQ600LP filters and detected by avalanche photodiodes. […] The FRET efficiency (ETeff) was calculated using SymphoTime 64 software. […]"}, "[8]": {"biological_target": "T2, tau intra-molecular FRET biosensor (GFP-tau-RFP) (Homo sapiens, UniProt P10636)", "T2 construct": "The FRET biosensors express full-length 2N4R wild-type (WT) tau; […]; expressed in transfected cells", "assay": "Cellular tau intra-molecular FRET biosensor, dose-response", "format": "cell-based", "conditions": "GFP-tau-RFP stable HEK293 cells; read-out: EC50, reduction of intra-molecular FRET", "experimental": "To generate tau-GFP and tau-RFP, cDNA encoding full-length 2N4R tau (441 amino acids) was fused to the N-terminus of EGFP and TagRFP vectors. […] The GFP-tau-RFP was generated by fusing the N-terminal of tau to the C-terminus of GFP and the C-terminus of tau to the N-terminus of RFP. All constructs contain the monomeric mutation A206K to prevent constitutive fluorophore clustering.\nas §1, with “The control cells expressing only free soluble fluorophores (GFP or RFP only) were generated by transiently transfecting HEK293 cells using Lipofectamine 3000 with plasmids containing GFP or RFP DNAs at the same plasmid concentration as the inter-molecular tau FRET biosensor.” left out"}, "[9]": {"test_system": "GFP-32AA-RFP", "assay": "GFP-32AA-RFP fluorophores-only FRET control", "format": "cell-based, human", "experimental": "as §1, §2"}, "[10]": {"conditions": "control, 72 hours of incubation"}}, "note": "“Also recorded” adds a separate entry of the source.", "data": [{"smiles": "CCc1oc2ccccc2c1C(=O)c1cc(Br)c(O)c(Br)c1", "note": "[Benzbromarone]", "values": [{"measurement": "direct binding to immobilized tau protein", "setting": "[1]", "result": "no direct binding or interaction"}]}, {"smiles": "CCCCNc1cc(C(=O)O)cc(S(N)(=O)=O)c1Oc1ccccc1", "note": "[Bumetanide]", "values": [{"measurement": "direct binding to immobilized tau protein", "setting": "[1]", "result": "no direct binding or interaction"}]}, {"smiles": "CC(C)c1ccc2c(c1)c(SC(C)(C)C)c(CC(C)(C)C(=O)O)n2Cc1ccc(Cl)cc1", "note": "[MK-886]", "values": [{"measurement": "direct binding to immobilized tau protein", "setting": "[1]", "result": "dose-dependent binding"}, {"measurement": "Kd", "setting": "[1]; steady-state, immobilized tau, 25° C.", "result": 178, "unit": "nM"}, {"measurement": "FRET change in soluble free GFP/RFP-only control cells", "setting": "[2]", "result": "does not cause any significant FRET change"}, {"measurement": "ThT signal from tau preformed fibrils (PFF)", "setting": "[3]", "result": "did not reduce the ThT signal"}, {"measurement": "EC50", "setting": "[4]; read-out: EC50, decrease of FRET efficiency, WT tau biosensor", "result": 1400, "unit": "nM"}, {"measurement": "size of FRET change among the hits", "setting": "[5]", "result": "strongest change in FRET; also recorded: largest FRET change"}, {"measurement": "direct effect on ThT fluorescence", "setting": "[6]; [10]", "result": "did not have a direct effect on ThT fluorescence; also recorded: do not interfere with ThT fluorescence"}, {"measurement": "nucleation of fibril formation without heparin", "setting": "[6]; [10]", "result": "unable to nucleate tau fibrillization; also recorded: did not act to nucleate for fibril formation; also recorded: does not act as a nucleation center"}, {"measurement": "lag phase of tau β-sheet fibril formation", "setting": "[6]; heparin 0.4 mg/ml, MK-886 0.5 and 5 μM", "result": "reduces the lag phase; also recorded: shortens the lag phase"}, {"measurement": "smFRET change, N-terminal domain labelled construct", "setting": "[7]", "result": "only a minor decrease in FRET; also recorded: only minor differences"}, {"measurement": "smFRET change, PRR/MTBR labelled construct", "setting": "[7]", "result": "substantial increase in FRET; also recorded: substantially more compact (increase in FRET)"}, {"measurement": "EC50", "setting": "[8]", "result": 2120, "unit": "nM"}, {"measurement": "FRET change in GFP-32AA-RFP control cells", "setting": "[9]", "result": "does not cause any significant FRET change"}]}, {"smiles": "Cc1cccc(Nc2ccncc2S(=O)(=O)NC(=O)NC(C)C)c1", "note": "[Torsemide]", "values": [{"measurement": "direct binding to immobilized tau protein", "setting": "[1]", "result": "no direct binding or interaction"}]}, {"smiles": "Oc1cc(Cl)ccc1Oc1ccc(Cl)cc1Cl", "note": "[Triclosan]", "values": [{"measurement": "direct binding to immobilized tau protein", "setting": "[1]", "result": "no direct binding or interaction"}]}, {"smiles": "O=c1c(O)c(-c2ccc(O)c(O)c2)oc2c(O)c(O)cc(O)c12", "note": "[gossypetin]", "values": [{"measurement": "ThT signal from tau preformed fibrils (PFF)", "setting": "[3]", "result": "showed a significant decrease"}, {"measurement": "sensitivity of the FRET biosensor to the compound", "setting": "[4]; functionality test", "result": "not"}, {"measurement": "direct effect on ThT fluorescence", "setting": "[6]; [10]", "result": "do not interfere with ThT fluorescence"}]}]}
